In patent US20210330611A1, “THERAPY FOR NEUROLOGICAL DISEASES/DISORDERS” (priority 2020, published 2021):
Like-named read-outs stand apart in the source and are kept apart here.

Tests used:
[1] = system: fibrin- and LPS-induced microglia activation; assay: cells; type: cell-based, rat
[2] = system: fibrin-induced microglia activation; assay: Image-based assay of fibrin-induced microglia activation (HTS and dose response); type: cell-based, rat; settings: for inhibition at 10 µM: Rattus norvegicus, Microglia, read-out: Fibrin % inhibition
[3] = system: LPS-induced microglia activation; assay: Image-based assay of LPS-induced microglia activation (HTS and dose response); type: cell-based, rat; settings: for inhibition at 10 µM: Rattus norvegicus, Microglia, read-out: LPS % inhibition
primary rat microglia [4] = assay: Cell toxicity (dead cells, size <150 μm2) in coated fibrin (cFib) assay; settings: for IC50: read-out: Cell Toxicity IC50 (uM) [cFib assay];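 as to Fibrin % cell toxicity: share of dead cells sized under 150 µm2 at 10 µM in fibrin-stimulated microglia HTS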
primary rat microglia [5] = assay: Cell toxicity (dead cells, size <150 μm2) in LPS assay; settings: for IC50: read-out: Cell Toxicity IC50 (uM) [LPS assay]
[6] = HTS of 1907 compounds, quadrant by fibrin and LPS inhibition
[7] = primary microglia HTS, 10 μM, fibrin-stimulated, cell size >800 μm^2 as marker of activation
[8] = primary microglia HTS, 10 μM, LPS-stimulated, cell size >800 μm^2 as marker of activation
[9] = primary microglia HTS, 10 μM, fibrin assay, cell size <150 μm^2 as marker of toxicity
[10] = primary microglia HTS, 10 μM, LPS assay, cell size <150 μm^2 as marker of toxicity
[11] = quadrant by fibrin and LPS inhibition in HTS of 1907 compounds
[12] = primary microglia HTS, fibrin stimulation, increased cell size (>800 μm^2) as marker of activation
[13] = 48 h, primary microglia HTS, LPS stimulation, increased cell size (>800 μm^2) as marker of activation
[14] = primary microglia HTS, fibrin stimulation, decreased size (<150 μm^2) as marker of toxicity
[15] = primary microglia HTS, LPS stimulation, decreased size (<150 μm^2) as marker of toxicity
[16] = primary microglia HTS, fibrin stimulation, activation = cell size >800 μm2
[17] = 48 h, primary microglia HTS, LPS stimulation, activation = cell size >800 μm2
[18] = primary microglia HTS, fibrin stimulation, toxicity = cell size <150 μm2
[19] = primary microglia HTS, LPS stimulation, toxicity = cell size <150 μm2

For `CCOc1ccccc1OCCN[C@H](C)Cc1ccc(OC)c(S(N)(=O)=O)c1.Cl` [Tamsulosin Hydrchloride], the “Quadrant (FIG. 5b)” value [1, 6] was “Q4”, the Fibrin % inhibition [2, 7] was −31% and the LPS % inhibition [3, 8] was 12%. The “Fibrin % cell toxicity” value (primary rat microglia [4]; [9]) was 0% and the “LPS % cell toxicity” value (primary rat microglia [5]; [10]) was 0%.

In the case of `O=C1CCO1` [Beta-propiolactone, Propiolactone], the “Quadrant (FIG. 5b)” value ([1]; primary HTS, 10 μM) is reported as “Q4”, the Fibrin % inhibition ([2]; primary HTS, 10 μM, fibrin-stimulated primary microglia) is reported as −12% and the LPS % inhibition ([3]; primary HTS, 10 μM, LPS-stimulated primary microglia) is reported as 8%. For the same compound, the “Fibrin % cell toxicity” value (primary rat microglia [4]; primary HTS, 10 μM, fibrin assay, dead cells size <150 μm2) was 1% and the “LPS % cell toxicity” value (primary rat microglia [5]; primary HTS, 10 μM, LPS assay, dead cells size <150 μm2) was 0%.

In the case of `CCOc1ccccc1OCCN[C@H](C)Cc1ccc(OC)c(S(N)(=O)=O)c1` [Tamsulosin], the “Quadrant (FIG. 5b)” value [1, 11] is reported as “Q1”, the inhibition at 10 µM [2, 12] is reported as 20% and the inhibition at 10 µM [3, 13] is reported as 59%. The “Fibrin % cell toxicity” value (primary rat microglia [4]; [14]) was 1% and the “LPS % cell toxicity” value (primary rat microglia [5]; [15]) was 2%.

`COc1ccc2cc1Oc1ccc(cc1)C[C@H]1c3c(cc4c(c3Oc3cc5c(cc3OC)CCN(C)[C@@H]5C2)OCO4)CCN1C` [Cepharanthine] was tested, and the “Quadrant (FIG. 5b)” value [1, 11] was “Q2”, the inhibition at 10 µM [2, 12] was 114% and the inhibition at 10 µM [3, 13] was 130%. For the same compound, the “Fibrin % cell toxicity” value (primary rat microglia [4]; [14]) was 85% and the “LPS % cell toxicity” value (primary rat microglia [5]; [15]) was 58%.

With `CCN(CCO)CCCC(C)Nc1ccnc2cc(Cl)ccc12` (stereo not shown) [Hydroxychloroquine] the “Quadrant (FIG. 5b)” value [1, 11] was “Q4”, the inhibition at 10 µM [2, 16] was 35% and the inhibition at 10 µM [3, 17] was 17%. The “Fibrin % cell toxicity” value (primary rat microglia [4]; [18]) was 1% and the “LPS % cell toxicity” value (primary rat microglia [5]; [19]) was 0%.

`CC(C)(C)NCC(O)c1cc(O)cc(O)c1` (stereo not shown) [Terbutaline] was tested, and the “Quadrant (FIG. 5b)” value [1, 6] was “Q4”, the inhibition at 10 µM [2, 7] was 39% and the inhibition at 10 µM [3, 8] was 28%. For the same compound, the “Fibrin % cell toxicity” value (primary rat microglia [4]; [9]) was 1% and the “LPS % cell toxicity” value (primary rat microglia [5]; [10]) was 0%.

With `CC1Cc2ccccc2N1NC(=O)c1ccc(Cl)c(S(N)(=O)=O)c1` (stereo not shown) [Indapamide] the “Quadrant (FIG. 5b)” value [1, 11] was “Q4”, the inhibition at 10 µM [2, 16] was -14% and the inhibition at 10 µM [3, 17] was 11%. For the same compound, the “Fibrin % cell toxicity” value (primary rat microglia [4]; [18]) was 0% and the “LPS % cell toxicity” value (primary rat microglia [5]; [19]) was 0%.

With `O=c1cc[nH]c(=O)[nH]1` [Uracil] the “Quadrant (FIG. 5b)” value [1, 6] was “Q4”, the inhibition at 10 µM [2, 7] was 3% and the inhibition at 10 µM [3, 8] was 11%. For the same compound, the “Fibrin % cell toxicity” value (primary rat microglia [4]; [9]) was 0% and the “LPS % cell toxicity” value (primary rat microglia [5]; [10]) was 0%.

In the case of `Nc1ccc(S(=O)(=O)Nc2ccc(Cl)nn2)cc1` [Sulfachlorpyridazine], the “Quadrant (FIG. 5b)” value [1, 6] is reported as “Q4”, the inhibition at 10 µM [2, 7] is reported as 18% and the inhibition at 10 µM [3, 8] is reported as 14%. For the same compound, the “Fibrin % cell toxicity” value (primary rat microglia [4]; [9]) was 1% and the “LPS % cell toxicity” value (primary rat microglia [5]; [10]) was 0%.

In the case of `CCCc1nc(C(C)(C)O)c(C(=O)OCc2oc(=O)oc2C)n1Cc1ccc(-c2ccccc2-c2nnn[nH]2)cc1` [Olmesartan Medoxomil], the “Quadrant (FIG. 5b)” value [1, 11] is reported as “Q4”, the inhibition at 10 µM [2, 12] is reported as -5% and the inhibition at 10 µM [3, 13] is reported as 12%. For the same compound, the “Fibrin % cell toxicity” value (primary rat microglia [4]; [14]) was 1% and the “LPS % cell toxicity” value (primary rat microglia [5]; [15]) was 0%.

For `NNC(=O)c1ccncc1` [Isoniazid], the “Quadrant (FIG. 5b)” value [1, 11] was “Q4”, the inhibition at 10 µM [2, 16] was -29% and the inhibition at 10 µM [3, 17] was 19%. For the same compound, the “Fibrin % cell toxicity” value (primary rat microglia [4]; [18]) was 1% and the “LPS % cell toxicity” value (primary rat microglia [5]; [19]) was 0%.

With `O=C(NCC1CCCCN1)c1cc(OCC(F)(F)F)ccc1OCC(F)(F)F` (stereo not shown) [Flecainide] the “Quadrant (FIG. 5b)” value [1, 11] was “Q4”, the inhibition at 10 µM [2, 16] was -35% and the inhibition at 10 µM [3, 17] was 5%. For the same compound, the “Fibrin % cell toxicity” value (primary rat microglia [4]; [18]) was 0% and the “LPS % cell toxicity” value (primary rat microglia [5]; [19]) was 0%.

For Gentamicin sulfate [reference compound], the Hit ([1]; HTS hit classification) was “HIT (Hits were defined as molecules that exhibited greater than 50% inhibition of either fibrin or LPS activation)”, the “Quadrant (FIG. 5b)” value [1, 6] was “Q2” and the “Quadrant (FIG. 5b)” value ([1]; Table 1, screen at 10 μM) was “Q2”. For the same compound, the “Cherry-picked Hit (Suppl. Table 7)” value ([1]; Table 3) was “HIT (Hits were defined as molecules that exhibited greater than 50% inhibition of either fibrin or LPS activation)”, the “Quadrant (FIG. 5b)” value ([1]; Table 3, screen at 10 μM) was “Q2” and the “Cherry-picked Hit (Suppl. Table 7)” value ([1]; hit classification in microglia HTS) was “HIT (Hits were defined as molecules that exhibited greater than 50% inhibition of either fibrin or LPS activation)”. For the same compound, the “Quadrant (FIG. 5b)” value [1, 11] was “Q2”, the “Fibrin Selectivity” value [2] was 5 and the “Fibrin Selectivity (LOG10)” value [2] was 0.71. The IC50 ([2]; Table 1, dose response 0.001-20 μM, triplicates, primary rat microglia, 48 h, read-out: Fibrin IC50) was 4 µM, the IC50 ([2]; Table 3, read-out: Fibrin IC50 (uM) (Suppl. Table 7)) was 4 µM and the IC50 ([2]; dose response, fibrin-induced microglia activation, read-out: Fibrin IC50) was 4 µM. It also gave an IC50 ([2]; fibrin-induced microglia activation, dose response, read-out: Fibrin IC50 (uM) (Suppl. Table 7)) of 4 µM, a Fibrin % inhibition [2, 12] of 105% and an IC50 ([3]; LPS-induced microglia activation, dose response, read-out: LPS IC50 (uM) (Suppl. Table 7)) greater than 20 µM. For the same compound, the IC50 ([3]; Table 1, dose response 0.001-20 μM, triplicates, primary rat microglia, 48 h, read-out: LPS IC50) was greater than 20 µM, the IC50 ([3]; Table 3, read-out: LPS IC50 (uM) (Suppl. Table 7)) was greater than 20 µM and the IC50 ([3]; dose response, LPS-induced microglia activation, read-out: LPS IC50) was greater than 20 µM. For the same compound, the LPS % inhibition ([3]; primary microglia HTS, LPS stimulation, increased cell size (>800 μm^2) as marker of activation) was 101%, the “Fibrin % cell toxicity” value (primary rat microglia [4]; [14]) was 1% and the IC50 (primary rat microglia [4]; Table 3) was greater than 20 µM. The IC50 (primary rat microglia [4]; cFib assay) was greater than 20 µM, the “LPS % cell toxicity” value (primary rat microglia [5]; [15]) was 4% and the IC50 (primary rat microglia [5]; LPS assay) was greater than 20 µM. For the same compound, the IC50 (primary rat microglia [5]; Table 3) was greater than 20 µM.
